Results reported in ChEMBL document CHEMBL4825684, “Design, synthesis and biological evaluation of N-anthraniloyl tryptamine derivatives as pleiotropic molecules for the therapy of malignant glioma” (Eur J Med Chem, 2021).
Activity calls are given as the source filed them. No cut-off for these calls is given here.

Assays:
[1] = test system: U-87 MG; test: Induction of apoptosis in human U-87 MG cells assessed as decrease in Bcl2/Bax ratio at 2 to 4 uM incubated for 48 hrs by Western blot analysis relative to control; assay type: functional, cell-based; details: U-87MG ATCC, dose 2-4 µM
[2] = Toxicity in rat C6 cells inoculated orthotopic Sprague-Dawley rat model assessed as changes in blood at 50 mg/kg, ip twice a day administered for 13 days of tumor implantation by routine blood test; assay type: organism-based; details: in vivo, 312 h, time 13 day
[3] = test system: U-251; test: Induction of apoptosis in human U-251 cells assessed as necrotic cells at 2 uM incubated for 48 hrs by […] double staining based flow cytometry assay (reference value: 1.32%); assay type: functional
[4] = test system: U-251; test: Induction of apoptosis in human U-251 cells assessed as late apoptotic cells at 4 uM incubated for 48 hrs by […] double staining based flow cytometry assay (reference value: 1.39%); assay type: functional
[5] = test system: Rattus norvegicus; test: Anxiolytic activity in rat C6 cells inoculated orthotopic Sprague-Dawley rat model assessed as increase in time spent in central part at 50 mg/kg, ip twice a day administered for 13 days of tumor implantation by open field test relative to control; assay type: functional, organism-based; details: time 13.0 day
[6] = test system: U-251; test: Induction of apoptosis in human U-251 cells assessed as viable cells at 8 uM incubated for 48 hrs by […] double staining based flow cytometry assay (reference value: 96.6%); assay type: functional; details: read-out: Activity
[7] = Tmax in Sprague-Dawley rat at 60 mg/kg, ip measured up to 24 hrs by LC-MS analysis; assay type: ADME, organism-based; details: in vivo
[8] = test system: U-87 MG; test: Cytotoxicity against human U-87 MG cells assessed as cell viability at 4 uM measured up to 24 hrs; assay type: functional, U-87MG ATCC; details: time hrs <=24, read-out: Activity
[9] = test system: U-251; test: Cytotoxicity against human U-251 cells assessed as cell viability at 4 uM measured up to 24 hrs; assay type: functional; details: U-251, 24 h, time hrs <=24, read-out: Activity
[10] = test system: U-87 MG; test: Induction of apoptosis in human U-87 MG cells assessed as late apoptotic cells at 2 uM incubated for 48 hrs by […] double staining based flow cytometry assay (reference value: 0.61%); assay type: functional, U-87MG ATCC
[11] = test system: U-87 MG; test: Induction of apoptosis in human U-87 MG cells assessed as late apoptotic cells at 4 uM incubated for 48 hrs by […] double staining based flow cytometry assay (reference value: 0.61%); assay type: functional, U-87MG ATCC
[12] = test system: U-251; test: Induction of apoptosis in human U-251 cells assessed as late apoptotic cells at 8 uM incubated for 48 hrs by […] double staining based flow cytometry assay (reference value: 1.39%); assay type: functional
[13] = test system: U-87 MG; test: Antiproliferative activity against human U-87 MG cells assessed as growth inhibition incubated for 72 hrs by CCK-8 assay; assay type: functional, cell-based, U-87MG ATCC
[14] = test system: U-87MG ATCC; test: Reduction in MMP9 expression in human U-87 MG cells incubated for 24 hrs by Western blot analysis; assay type: functional, cell-based; details: dose 1-4 µM
[15] = Toxicity in rat C6 cells inoculated orthotopic Sprague-Dawley rat model assessed as body weight change at 50 mg/kg, ip twice a day administered for 13 days of tumor implantation; assay type: organism-based; details: in vivo, 312 h, time 13 day
[16] = test system: C6; test: Antiproliferative activity against rat C6 cells assessed as growth inhibition incubated for 72 hrs by CCK-8 assay; assay type: functional, cell-based; details: C6, 72 h

COc1cc(Nc2ccccc2C(=O)NCCc2c[nH]c3ccccc23)cc(OC)c1OC
Activity [1]: Active | Activity [2]: Non-Toxic | Activity [3]: 4.28% | Activity [4]: 21.8% | Activity [5]: Active | viability at 8 µM [6]: 56.6% | Tmax [7]: 25.2 min | viability at 4 µM [8]: 80% | viability at 4 µM [9]: 80% | Activity [10]: 1.53% | Activity [11]: 3.78% | Activity [12]: 26.2% | IC50 [13]: 4.78 µM | Activity [14]: Dose-Dependent Effect | Activity [15]: Non-Toxic | IC50 [16]: 4.23 µM
